In ChEMBL document CHEMBL5104105, “Identification of the first structurally validated covalent ligands of the small GTPase RAB27A” (RSC Med Chem, 2022):
The source made the active and inactive calls. The calls are words filed in the database; no cut-off is given here.

Tests used:
Homo sapiens [1] = species: Homo sapiens; assay: Covalent binding affinity to Spl2/Rab27A C188 mutant fusion protein (unknown origin) assessed as half-life of adduct formation by measuring protein mass shift after 24 hrs by intact-protein mass spectrometry
Homo sapiens [2] = species: Homo sapiens; assay: Covalent binding affinity to Spl2/Rab27A C123 mutant fusion protein (unknown origin) assessed as half-life of adduct formation by measuring protein mass shift after 8 hrs by intact-protein mass spectrometry

| Activity (Homo sapiens [1]) | Activity (Homo sapiens [2]) | SMILES |
| --- | --- | --- |
| Active | Active | C=CC(=O)Nc1nc2ccccc2n1CCc1ccccn1 |
| Active | – | C=CC(=O)N1CCC[C@H]1c1ccc(OC)cc1 |
